Literature values in US11185067B2, “Attractants for rats” (priority 2015, dated 2021).

Test system: rats
Settings: odor-painted glass rods inserted into cage; Zhang et al. 2008, 2011
In the case of `CCCCCCCC(C)=O` [2-nonanone], the “effects on rat behavior” value is given as “inducing sniffing or licking”. For `CCCC(=O)CCC` [4-heptanone], the “effects on rat behavior” value is given as “inducing sniffing or licking”. For `CCCCCC(C)=O` [2-heptanone], the “effects on rat behavior” value is given as “inducing sniffing or licking”.
